The target of series [1] is T1, Aβ40 peptide (Homo sapiens, UniProt P05067).
T1 construct: we preferred using Aβ40 peptide
The series can be described thus: Inhibition of Aβ40 aggregation, ThT fluorescence-based method. In kind it is biochemical. The method, then: In vitro inhibition of Aβ aggregation was assessed through a ThT fluorescence-based method, with the use of 2% 1,1,1,3,3,3-hexafluoroisopropanol (HFIP) as aggregation enhancer. In this medium-throughput assay, we preferred using Aβ40 peptide, being more manageable than Aβ42 and less prone to the formation of preaggregates. Samples of Aβ were co-incubated with test molecules in PBS at 100 µM concentration and the antiaggregating activities were measured after 2 h of incubation at 25 °C. For compounds showing >80% Aβ40 aggregation inhibition, IC50s were determined.
(§1) The spectrofluorimetric assays, measuring ThT fluorescence in the presence of Aβ, were done as previously described. Briefly, coincubation samples were prepared as described above (Section 2.2 and Section 2.3) in 96-well black, non-binding microplates (Greiner Bio-One GmbH, Frickenhausen, Germany). Fluorimetric reads were performed in a multiplate reader Infinite M1000 Pro (Tecan, Cernusco sul Naviglio, Italy). Each concentration point was run in triplicate. CD ellipticity measures were performed as detailed in ref. [20], following the increase of the negative band at 215 nm as indicative of β-sheet arrangement.

Series [2] in a line: Lipophilicity by RP-HPLC (log k'w). Type of series: physicochemical. As to conditions: RP-HPLC C18, MeOH/10 mM ammonium formate buffer pH 4.5, extrapolated to 100% aqueous mobile phase, 25 °C. The method, then: To place on a more quantitative basis the above SAR trends, the lipophilicity of a number of isatin arylhydrazone derivatives was measured by an RP-HPLC method. The polycratic capacity factors (log k’w) were determined (details in the Experimental Section). Lipophilicity descriptors (i.e., 1-octanol–water partition coefficients) were also calculated (CLOGPs) using two computational tools (Bio-Loom software, v. 1.7 and ACDLabs software, release 10.0). The ACDLabs software was used also for calculating descriptors of polarizability and size, namely molar refractivity (CMR) and molar volume (MV). The experimental lipophilicity parameters (log k’w), along with CMR and MV, are reported in Table 6 for 18 compounds achieving finite IC50s (<100 µM) in the Aβ aggregation assay.
The lipophilicity parameters were determined by an RP-HPLC technique. Methanol solutions of the investigated hydrazone compounds (0.5 mg/mL) were injected into an Agilent 1260 infinity HPLC system (Agilent Technologies Italia, Milan), equipped with a diode array detector (DAD), and a Phenomenex Kinetex C18 column (150 × 4.6 mm, 5 μ, Phenomenex Italy s.r.l., Castel Maggiore, BO, Italy), and eluted at different mobile phase compositions (0.05 increments of MeOH volume fraction in 10 mM ammonium formate buffer at pH 4.5, ranging ϕ between 0.85 and 0.30). All RP-HPLC measurements were carried out at 25 ± 1 °C, at a flow rate of 1.0 mL/min, and at 254 nm wavelength.
The logarithm of capacity factors (log k′ = log (tR − t0)/t0) of each compound at different mobile phase compositions have been calculated; tR represents the retention time of the solute and t0 is the column dead time, measured as the elution time of a KNO3 solution in MeOH. For each compound, the log k′ values increased linearly with decreasing MeOH volume fraction. Logarithms of capacity factors extrapolated to the 100% aqueous mobile phase (log k′w) were calculated from the linear regressions on at least five data points (r^2 > 0.975).

Series [3] concerns the target T1, Aβ40 peptide. More on the design: method as in PMID 21144622. Conditions: read-out: IC50 inhibition of Aβ40 aggregation; hit compound, previously reported; cited from earlier work.
Series [4] relates to AChE. The arrangement: method as in PMID 28801274. Conditions: read-out: IC50 AChE inhibition; cited from earlier work.
On the set-up of series [5]: method as in PMID 28801274. Conditions: pH 7.4 and 37 °C; cited from earlier work.
On the set-up of series [6]: method as in PMID 28801274. Conditions: Tris/HCl buffer, pH 7.4 at 25 °C; cited from earlier work.
A short description of series [7]: Aqueous solubility in Tris/HCl buffer. In kind it is physicochemical. As to conditions: pH 7.4 at 25 °C. The source says: Based on data in Table 1, Table 2, Table 3, Table 4 and Table 5, compound 28 was selected for further biological and biophysical studies, aimed at elucidating the mechanism of disruption of Aβ aggregation, and evaluating the activity in biochemical assays related to neurodegeneration, and cytoprotection in a cell model of Aβ toxicity. Starting from the evidence that a bulky substituent led to a net improvement of antiaggregating activity (Table 5), we chose the N^1-cyclopropyl derivative 28 as the best compromise between in vitro activity and aqueous solubility.

Series [8] concerns the target Aβ42 peptide (Homo sapiens, UniProt P05067). The series can be described thus: Kinetics of Aβ42 fibrillization (ThT fluorescence and CD). In kind it is biochemical. Conditions: 50 µM Aβ42 with 20 µM compound, PBS 2% ethanol, 37 °C, after one week. The method, then: For ThT and circular dichroism (CD) time-course measures of Aβ aggregation (50 µM), alone or in the presence of 28 (20 µM), samples were prepared in PBS containing 2% v/v ethanol as the cosolvent, and incubated at 37 °C. Aβ42 peptide was preferred, being the principal responsible of amyloid burden in AD brain. Kinetics of amyloid aggregation of Aβ42 was followed by means of ThT fluorescence and CD absorption. In the latter case, we monitored the increase of the negative band at 215 nm, probing the random coil to β-sheet transition in folding peptide. Results depicted in Figure 4 show a fast fibrillization of self-aggregating peptide (dotted black line), with fibrils already detectable in large amount in the first 48 h of incubation.
as §1

Series [9] concerns SH-SY5Y cells. The experiment in a line: Protection from Aβ42-induced cytotoxicity, MTT assay. Conditions: 5 µM Aβ42 co-incubated with equimolar 5 µM compound, within two days. Type of series: cell-based, human. As to the method: (§2) Protection from Aβ42-induced cytotoxicity was measured for compound 28 in a conventional cell-based assay, measuring cell viability by means of MTT reduction. Antioxidant activity of 28 was assessed in an H2O2-induced oxidation cell model. Reactive oxygen species (ROS) production was detected by means of a spectrofluorometric measure of the fluorescent probe 2′,7′-dichlorofluorescein (DCF), formed by oxidation of 2′,7′-dichlorodihydrofluorescein (DCFH). In both assays, human SH-SY5Y neuroblastoma cell line was used.
Cytoprotection from Aβ42-induced neurotoxicity and from ROS generation was assessed in SH-SY5Y cells as already described. At least three independent experiments with six replicates (n ≥ 18) were carried out, and the results were averaged. Briefly, for MTT assay, SH-SY5Y cells were cultured in DMEM-Dulbecco’s modified Eagle’s medium (Sigma-Aldrich), grown to 70% confluence and seeded for experiment in 96-well plates at a density of 10,000 cells/well. Cultured cells were added with a DMEM solution of Aβ42, alone or in mixture with 28 (5 μM final concentration of both) and incubated at 37 °C in 5% CO2. […] After removal of solution and addition of DMSO, the absorbance of product formazan produced from MTT was measured at 570 nm using a multilabel plate counter Victor3 V (Perkin Elmer, Milan, Italy), with DMSO medium as the blank solution.

Series [10] has as its system SH-SY5Y cells. The experiment in a line: Antioxidant activity, H2O2-induced ROS production, DCFH-DA assay. As to conditions: Homo sapiens, 20 µM compound, 100 µM hydrogen peroxide, read-out: ROS scavenging, maximum effect relative to effect of 100 µM quercetin. Type of series: cell-based. As to the method:
as §2
Intracellular ROS production was evaluated using an oxidation-sensitive fluorescent probe, 2′,7′-dichlorodihydrofluorescin diacetate (DCFH-DA; Sigma-Aldrich). Viable SHSY5Y cells were seeded in a black 96-well cell culture plate for 24 h, then the cells were incubated in DMEM supplemented with different concentration (0 to 20 μM) of 28 for 1 h. After washing, DCFH-DA (50 μM final concentration) was added directly to each well, and the plate was incubated at 37 °C in 5% CO2 for 0.5 h. […] The formation of fluorescent dichlorofluorescein (DCF) due to oxidation of DCFH in the presence of ROS was read directly in each well at an excitation wavelength of 485 nm and an emission wavelength of 530 nm using a multilabel plate reader Victor3 V (Perkin Elmer), with DMSO medium as the control.

In brackets after ≈: the same amount, converted by molar mass. Where two headings read alike, the source gives them in different places.

Here are results for 2 molecules from article PMC6100259, “Insights into Structure-Activity Relationships of 3-Arylhydrazonoindolin-2-One Derivatives for Their Multitarget Activity on β-Amyloid Aggregation and Neurotoxicity” (Molecules : A Journal of Synthetic Chemistry and Natural …, 2018).

For orientation: half-life means the time needed for the level to fall by half in the phase considered. What is called solubility is how much of the substance goes into solution per volume.

T1 sequence (P05067 672-711 limits assumed): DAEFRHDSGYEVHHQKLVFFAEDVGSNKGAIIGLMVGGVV
Aβ42 peptide, sequence (P05067 672-713 limits assumed): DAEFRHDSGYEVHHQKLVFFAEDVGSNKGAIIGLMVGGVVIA

Turning to `COc1ccc2c(c1)/C(=N/Nc1ccc(C(C)C)cc1)C(=O)N2` [Compound 1, (3Z)-5-methoxy-1H-indole-2,3-dione 3-[(4-isopropylphenyl)hydrazone]], the IC50 in series [1] (Aβ40 aggregation inhibition, read-out: pIC50, Aβ antiaggregating potency (converted)) was 398 nM; in series [3], 430 ± 40 nM; in series [4] it was 6250 nM. For the same molecule, in [2], the “log k'w” value was 5.44. Moreover, in series [5], the half-life is 24 h. Moreover, the solubility in [6] is reported as 71 µM (≈ 22 µg/mL).
In series [1], `COc1ccc2c(c1)/C(=N/Nc1ccc(C(C)C)cc1)C(=O)N2C1CC1` [Compound 28, (Z)-1-Cyclopropyl-3-(2-(4-isopropylphenyl)hydrazono)-5-methoxyindolin-2-one] had an IC50 of 800 ± 130 nM. The “log k'w” value in series [2] is given as 6.36. The molecule further gave a solubility in series [7] of 21 µM (≈ 7.34 µg/mL). Further, the “fibril content compared with that of control peptide” value in series [8] is recorded as “about 30%”. For the same molecule, the “cell viability (MTT reduction)” value in series [9] is on record as “fully viable”. For the same molecule, in [10], the Emax at 20 µM is ~50%.
